Measured values from patent US20080254152A1, “Methods for Reducing the Effects of Stress on Skin Condition” (priority 2003, published 2008).

Experiments:
[1] = test system: procollagen-1 expression in human neonatal dermal fibroblast cells; assay: Procollagen I C-peptide EIA in neonatal-derived human dermal fibroblasts after chronic dexamethasone and PMA; format: cell-based; conditions: chronic dexamethasone then 1 μM PMA; T6; neonatal fibroblasts; FIG. 8
Method: In this study, to understand better the effect of chronic stress on dermal matrix remodelling in the skin, we have therefore measured changes in markers of dermal matrix degradation (MMP-1) and dermal matrix synthesis (Procollagen I) in chronically glucocorticoid-treated primary human dermal fibroblasts, following acute stress with PMA. The experimental approach is similar to that described in example 1 except that the cells tested are dermal fibroblasts and cells are assayed for expression of procollagen-1, MMP-1 and MMP-9 expression.
Primary human dermal fibroblast cells were cultured and passaged in DMEM (Gibco) supplemented with 10% FBS (foetal bovine serum). Cells were routinely plated out in 6-well tissue culture dishes, at a seeding density of ˜5000 cells/cm^2 in 2 ml complete medium/well for 24 hours, and incubated at 37° C. in 5% CO2. Media was removed and cells grown in DMEM & 1% FBS, 24 hours prior to treatments.
Pre-treatment and test solutions were prepared in DMEM containing low serum (1% FBS). […] Following this, the cells were oxidatively stressed for 24 hours with 1 μM PMA (Sigma P8139).
Collagen I is synthesised as a precursor molecule, Procollagen I. The amount of free propeptide therefore, reflects stoichiometrically, the amount of collagen I synthesised. The Procollagen Type I C-peptide Enzyme Immunoassay (EIA) kit allows for the quantitative determination of Procollagen Type I C-peptide (PIP).
Eight PIP standards were prepared in sample diluent at concentrations ranging from 0 to 640 ng/ml. 100 μl of antibody-Peroxidase conjugate solution and 20 μl of cell lysate (1 μg protein) or standard was added to duplicate wells. The plate was sealed and incubated at 37° C. for 3 hours before being washed four times with 400 μl of PBS. Each well then received 100 μl of substrate solution and the plate incubated at room temperature, on the benchtop, for 15 minutes. After this period, 100 μl stop solution was added to each well and absorbance measured at 450 nm with a plate reader.
A standard curve was plotted of mean absorbance versus PIP concentration and the line of best fit calculated by regression analysis. The unknown concentration of PIP in all the samples was estimated from this.
The same methods were used as described in Example 2, except that various test agents were added to the cells during the pre-treatment period.

[2] = test system: IL-6 expression by Human Umbilical Vein Endothelial Cells; assay: IL-6 ELISA of HUVEC tissue culture supernatant; format: cell-based; conditions: without PMA
Method: (§1) An in vitro model has been developed to investigate the impact of chronic stress on the inflammatory status of endothelial cells. • a. Cells are grown in 6-well (9.5 cm^2) plates. • b. […] Tissue culture supernatant and cell pellets are harvested at timepoint T0. • d. The cells are oxidatively stressed with 1 μM Phorbol Myristate Acetate (PMA). • e. Tissue culture supernatant and cell pellets were harvested at 6, 24 and 48 hours (T6, T24 and T48, respectively) post-PMA treatment. • f. All tissue culture supernatant was assayed for Lactate Dehydrogenase (LDH), as a measure of cytotoxicity, and Interleukin-6 synthesis. • g. All cells were counted (Beckman Coulter Counter) and pelleted and cell lysate assayed for ICAM-1 expression (Intra Cellular Adhesion Molecule 1).

[3] = test system: ICAM-1 expression in HUVECs; assay: ICAM-1 expression in HUVECs pre-treated 5 days with dexamethasone, then oxidatively stressed with PMA (ELISA); format: cell-based, Human; conditions: chronic 1 μM glucocorticoid 5 days, then 1 μM PMA; HUVEC; FIG. 1
Method: as §1
HUVEC cells (Human umbilical vein endothelial cells, TCS Biologicals) were cultured and passaged in EGM-2 (Endothelial growth medium, Biowhittaker) supplemented with heparin, VEGF (vascular endothelial growth factor), gentamicin sulphate, ascorbic acid, HEGF (Human endothelial growth factor), hydrocortisone, HFGF-B (Human fibroblast growth factor B), R3-IGF-1 (long R insulin-like growth factor 1) and FBS (foetal bovine serum).
Cells were routinely plated out in 6-well tissue culture dishes, at a seeding density of ˜5000 cells/cm^2 in 2 ml complete medium/well, 48 hours before starting the experiment, and incubated at 37° C. in 5% CO2.
Pre-treatment and test solutions were prepared in EGM-2 containing all supplements except hydrocortisone.
Following this, the cells were oxidatively stressed for 24 hours with 1 μM PMA (Sigma P8139).
Receptor antagonists were added to the cells during the pre-treatment period. These included the Glucocorticoid Receptor Antagonist; 2 μM Mifepristone (Sigma M8046) and two CRH receptor antagonists; 200 nM Astressin (Sigma A4933) and 200 nM α-helical CRF peptide antagonist (Sigma C2917).
Any change in cell morphology was noted before the cells were harvested. Both the tissue culture supernatant and the endothelial cells were harvested after the five-day pre-treatment period (T0), at 6 hours and 24 hours after addition of PMA (T6 and T24) and at 24 hours after removal of the PMA (T48). All tissue culture supernatants were stored at −20° C.
All cell pellets were lysed on ice for 30 minutes in 1 ml cell lysis buffer per 2.5×10^6 cells. The lysis buffer contained 1% NP-40, 0.1% sodium deoxycholate, 0.1% SDS, 6 mM sodium chloride and 0.05M Tris at pH 7.6. Protease inhibitor cocktail ([…]; Sigma P8340) was added prior to use at a level of 10 μl per ml of lysis buffer. The partially lysed cell pellets were completely homogenised with a pellet pestle and unwanted cell debris removed by centrifugation for 20 minutes at 20,000 g at 4° C. The clarified cell lysate was frozen at −80° C. until needed.
The total protein concentration of each cell lysate was measured using the Pierce BCA protein assay kit. A set of eight standard solutions ranging from 0 to 1200 μg/ml protein was prepared from the supplied 2 mg/ml BSA stock solution. 10 μl of standard or cell lysate was added to duplicate wells of a flat-bottomed, 96-well microtitre plate. The reagent solution was prepared according to the kit instructions from 50 parts reagent A and 1 part reagent B. 200 μl of the final reagent was added to each well of the microtitre plate. The plate was mixed, covered and incubated at 37° C. for 30 minutes and absorbance read at 562 nm.
ICAM-1 protein in each cell lysate was estimated using the Human sICAM-1 DuoSet ELISA kit (R&D Systems DY720) according to the manufacturer's instructions.
The capture antibody was diluted to a final concentration of 4 μg/ml in PBS and 100 μl was used to coat each well of a 96-well microtitre plate overnight at room temperature. The plate was then washed three times with wash buffer (0.05% Tween 20 in PBS).

C[C@@H]1C[C@H]2[C@@H]3CCC4=CC(=O)C=C[C@]4(C)[C@@]3(F)[C@@H](O)C[C@]2(C)[C@@]1(O)C(=O)CO [Dexamethasone]
Inhibition of Procollagen-1 synthesis vs control, untreated cells [1]: ~50% | IL-6 secretion with glucocorticoid alone [2]: did not cause increased secretion of IL-6 | Induction of ICAM-1 synthesis after PMA, glucocorticoid pre-treated vs not pre-treated cells [3]: significantly greater
